{"source": "patent US20140369943A1", "about": "“COMPOSITIONS COMPRISING ISOSORBIDE MONOESTERS AND HALOGENATED ANTIMICROBIAL ACTIVE COMPOUNDS” (CLARIANT INTERNATIONAL LTD., priority 2011, published 2014)", "key": {"Pseudomonas oleovorans": {"system": "Pseudomonas oleovorans", "test": "MIC determination in agar (antimicrobial efficacy)", "type": "cell-based", "settings": "MIC of bronopol alone, CASO agar pH 7, corrected for dilution", "protocol": "(§1) Below, the antimicrobial efficacy of a composition according to the invention consisting of 20% by weight of isorbide caprylate 1 and 80% by weight of a 10% by weight strength solution of 2-bromo-2-nitropropane-1,3-diol (bronopol) in water against bacteria, fungi and yeasts is examined (hereinbelow, the composition is referred to as “composition A”). For the tests with bacteria, composition A was diluted with butyl polyglycol and then, at 50° C., added to liquid CASO agar (casein-peptone agar) buffered to pH 7 (+1-0.2) in various concentrations (hereinbelow referred to as compositions B1, B2, etc.). For the tests with fungi and yeasts, composition A was diluted with butyl polyglycol and then added to liquid Sabouraud 4% dextrose agar buffered to pH 5.6 (+1-0.2) in various concentrations (hereinbelow referred to as compositions PH1, PH2, etc.). […]\n(§2) The minimum inhibitory concentrations for the pure substances isosorbide caprylate 1 and bronopol were determined analogously.\n(§3) The values determined for the minimum inhibitory concentrations “MIC mixture”, stated in Table 1 below, are based on the concentrations of composition A.\n(§4) The values determined for the minimum inhibitory concentrations “QA” and “QB”, stated in Table 1 below, have already been corrected for the dilution effect of the water and the butyl polyglycol. […]"}, "Staphylococcus aureus": {"system": "Staphylococcus aureus", "test": "MIC determination in agar (antimicrobial efficacy)", "type": "cell-based", "settings": "MIC of bronopol alone, CASO agar pH 7, corrected for dilution", "protocol": "as §1, §2, §3, §4"}, "Penicillium funicolosium": {"system": "Penicillium funicolosium", "test": "MIC determination in agar (antimicrobial efficacy)", "type": "cell-based", "settings": "MIC of bronopol alone, Sabouraud 4% dextrose agar pH 5.6, corrected for dilution", "protocol": "(§5) Below, the antimicrobial efficacy of a composition according to the invention consisting of 20% by weight of isorbide caprylate 1 and 80% by weight of a 10% by weight strength solution of 2-bromo-2-nitropropane-1,3-diol (bronopol) in water against bacteria, fungi and yeasts is examined (hereinbelow, the composition is referred to as “composition A”). For the tests with bacteria, composition A was diluted with butyl polyglycol and then, at 50° C., added to liquid CASO agar (casein-peptone agar) buffered to pH 7 (+1-0.2) in various concentrations (hereinbelow referred to as compositions B1, B2, etc.). For the tests with fungi and yeasts, composition A was diluted with butyl polyglycol and then added to liquid Sabouraud 4% dextrose agar buffered to pH 5.6 (+1-0.2) in various concentrations (hereinbelow referred to as compositions PH1, PH2, etc.). The compositions B1, B2, etc. and PH1, PH2 etc. were each poured into Petri dishes and each inoculated with identical amounts of bacteria, fungi and yeasts. The minimum inhibitory concentration (MIC) is the concentration at which inhibition of the growth of the bacteria, fungi and yeasts in the compositions B1, B2, etc. and PH1, PH2, etc. occurs.\nas §2, §3\n(§6) The values determined for the minimum inhibitory concentrations “QA” and “QB”, stated in Table 1 below, have already been corrected for the dilution effect of the water and the butyl polyglycol.\n(§7) Kull et al., Applied Microbiology 1961, 9, 538 using the formula below: […]\n(§8) where • Qa is the minimum inhibitory concentration of isosorbide caprylate 1 in the mixture employed, • QA is the minimum inhibitory concentration of isosorbide caprylate 1, • Qb is the minimum inhibitory concentration of bronopol in the mixture employed and • QB is the minimum inhibitory concentration of bronopol.\n(§9) The values for Qa and Qb are determined from the values for the mixtures (“MIC mixture”) by multiplying the minimum inhibitory concentrations determined for Qa with the factor 0.2 and for Qb with the factor 0.08, because of the proportions of the ingredients—20% by weight of isosorbide caprylate 1 and 8% by weight of bronopol—in composition A according to the invention examined.\n(§10) If an SE value >1 is obtained, an antagonistic effect is present."}, "Aspergillus terreus": {"system": "Aspergillus terreus", "test": "MIC determination in agar (antimicrobial efficacy)", "type": "cell-based", "settings": "MIC of bronopol alone, Sabouraud 4% dextrose agar pH 5.6, corrected for dilution", "protocol": "as §5, §2, §3, §6, §7, §8, §9, §10"}, "Fusarium solani": {"system": "Fusarium solani", "test": "MIC determination in agar (antimicrobial efficacy)", "type": "cell-based", "settings": "MIC of bronopol alone, Sabouraud 4% dextrose agar pH 5.6, corrected for dilution", "protocol": "as §5, §2, §3, §6, §7, §8, §9, §10"}, "Enterobacter aerogenes": {"system": "Enterobacter aerogenes", "test": "MIC determination in agar (antimicrobial efficacy)", "type": "cell-based", "settings": "MIC of bronopol alone, CASO agar pH 7, corrected for dilution", "protocol": "as §5, §2, §3, §6, §7, §8, §9, §10"}, "Klebsiella pneumoniae": {"system": "Klebsiella pneumoniae", "test": "MIC determination in agar (antimicrobial efficacy)", "type": "cell-based", "settings": "MIC of bronopol alone, CASO agar pH 7, corrected for dilution", "protocol": "as §5, §2, §3, §6, §7, §8, §9, §10"}, "Aspergillus brasiliensis": {"system": "Aspergillus brasiliensis", "test": "MIC determination in agar (antimicrobial efficacy)", "type": "cell-based", "settings": "MIC of bronopol alone, Sabouraud 4% dextrose agar pH 5.6, corrected for dilution", "protocol": "as §5, §2, §3, §6, §7, §8, §9, §10"}, "Candida albicans": {"system": "Candida albicans", "test": "MIC determination in agar (antimicrobial efficacy)", "type": "cell-based", "settings": "MIC of bronopol alone, Sabouraud 4% dextrose agar pH 5.6, corrected for dilution", "protocol": "as §5, §2, §3, §6, §7, §8, §9, §10"}, "Penicillium minioluteum": {"system": "Penicillium minioluteum", "test": "MIC determination in agar (antimicrobial efficacy)", "type": "cell-based", "settings": "MIC of bronopol alone, Sabouraud 4% dextrose agar pH 5.6, corrected for dilution", "protocol": "as §5, §2, §3, §6, §7, §8, §9, §10"}, "Escherichia coli": {"system": "Escherichia coli", "test": "MIC determination in agar (antimicrobial efficacy)", "type": "cell-based", "settings": "MIC of bronopol alone, CASO agar pH 7, corrected for dilution", "protocol": "as §5, §2, §3, §6, §7, §8, §9, §10"}, "Citrobacter freundii": {"system": "Citrobacter freundii", "test": "MIC determination in agar (antimicrobial efficacy)", "type": "cell-based", "settings": "MIC of bronopol alone, CASO agar pH 7, corrected for dilution", "protocol": "as §5, §2, §3, §6, §7, §8, §9, §10"}, "Pseudomonas aeruginosa": {"system": "Pseudomonas aeruginosa", "test": "MIC determination in agar (antimicrobial efficacy)", "type": "cell-based", "settings": "MIC of bronopol alone, CASO agar pH 7, corrected for dilution", "protocol": "as §5, §2, §3, §6, §7, §8, §9, §10"}, "Proteus vulgaris": {"system": "Proteus vulgaris", "test": "MIC determination in agar (antimicrobial efficacy)", "type": "cell-based", "settings": "MIC of bronopol alone, CASO agar pH 7, corrected for dilution", "protocol": "as §5, §2, §3, §6, §7, §8, §9, §10"}, "[1]": {"system": "bacteria, fungi and yeasts", "test": "antimicrobial activity, overall statements in words", "type": "cell-based", "protocol": "as §5"}, "[2]": {"system": "bacteria, fungi and yeasts", "settings": "general statement, no data given, cited from earlier work"}}, "note": "“Also recorded” adds a separate entry of the source. Where two headings read alike, the source gives them in different places."}
{"compound": "O=[N+]([O-])C(Br)(CO)CO", "note": "[bronopol, 2-bromo-2-nitropropane-1,3-diol]", "values": [{"measurement": "QB, meas.", "setting": "Pseudomonas oleovorans", "value": 50, "unit": "ppm"}, {"measurement": "QB, meas.", "setting": "Staphylococcus aureus", "value": 75, "unit": "ppm"}, {"measurement": "QB, meas.", "setting": "Penicillium funicolosium", "value": 150, "unit": "ppm"}, {"measurement": "QB, meas.", "setting": "Aspergillus terreus", "value": 1000, "unit": "ppm"}, {"measurement": "QB, meas.", "setting": "Fusarium solani", "value": 500, "unit": "ppm"}, {"measurement": "QB, meas.", "setting": "Enterobacter aerogenes", "value": 75, "unit": "ppm"}, {"measurement": "QB, meas.", "setting": "Klebsiella pneumoniae", "value": 50, "unit": "ppm"}, {"measurement": "QB, meas.", "setting": "Aspergillus brasiliensis", "value": 500, "unit": "ppm"}, {"measurement": "QB, meas.", "setting": "Candida albicans", "value": 500, "unit": "ppm"}, {"measurement": "QB, meas.", "setting": "Penicillium minioluteum", "value": 500, "unit": "ppm"}, {"measurement": "QB, meas.", "setting": "Escherichia coli", "value": 50, "unit": "ppm"}, {"measurement": "QB, meas.", "setting": "Citrobacter freundii", "value": 50, "unit": "ppm"}, {"measurement": "QB, meas.", "setting": "Pseudomonas aeruginosa", "value": 75, "unit": "ppm"}, {"measurement": "QB, meas.", "setting": "Proteus vulgaris", "value": 50, "unit": "ppm"}]}
{"compound": "CCCCCCCC(=O)O", "note": "[caprylic acid]", "values": [{"measurement": "antimicrobial efficacy as constituent of isosorbide caprylate 1", "setting": "[1]; present in an amount of only 0.4% by weight", "value": "so low that it is negligible; also recorded: lack of antimicrobial activity"}, {"measurement": "antimicrobial activity", "setting": "[2]; at a pH of 6 or above", "value": "no antimicrobial activity"}, {"measurement": "antimicrobial efficacy", "setting": "[2]", "value": "antimicrobially effective"}]}
{"compound": "O[C@@H]1CO[C@H]2[C@@H]1OC[C@@H]2O", "note": "[isosorbide]", "values": [{"measurement": "antimicrobial activity", "setting": "[1]; overall conclusion in words from Tables 1 and 2", "value": "neither isosorbide nor isosorbide dicaprylate are antimicrobially active; also recorded: lack of antimicrobial activity"}]}
{"compound": "isosorbide monocaprylate", "values": [{"measurement": "antimicrobial activity", "setting": "[1]; concluded from activity of isosorbide caprylate 1 and inactivity of its other constituents", "value": "significant antimicrobial activity"}]}
